What was measured:
Type in all cases: cell-based
[1] = test system: RS4;11 cells; assay: Cell proliferation assay, RS4;11 cells (MTS, 72 h); settings: Homo sapiens, RS4;11 cell proliferation
Method: MTS testing kit was purchased from Promega. The RPMI-1640, Fetal bovine serum and Penicillin-Streptomycin were purchased from Gibco. Dimethyl sulfoxide (DMSO) was purchased from Sigma.
To investigate whether a compound is able to inhibit the activity of Bcl-2 in cells, a mechanism-based assay using RS4;11 (ATCC® CRL-1873™) cell was developed. In this assay, inhibition of Bcl-2 was detected by the inhibition of RS4;11 cells proliferation. RS4;11 cells were cultured in culture flasks to 40-80% confluence in RPMI-1640 plus 10% fetal bovine serum. Cells were collected and plated onto 96-well plates at desired cell density (30000 cells/well). Plates were incubated overnight at 37° C., with 5% CO2 to adhere. Compounds were added to the plates, and the final compound concentrations were 10000, 3333, 1111, […], 41, 14, 4.6 and 1.5 nM. Plates plated with RS4;11 cells were placed at 37° C., with 5% CO2 for 72 h. 20 μl MTS/100 μl medium mixture solution were added to each well and incubate the plates for exactly 2 hours. The reaction was stopped by adding 25 μl 10% SDS per well. Measure absorbance at 490 nm and 650 nm (reference wavelength). IC50 was calculated using GraphPad Prism 5.0.

[2] = test system: DoHH2 cells; assay: Cell proliferation assay, DoHH2 cells (MTS, 120 h); settings: Homo sapiens, DOHH-2
Procedure, shortened: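 DoHH2 cells in RPMI-1640 with 10% FBS were plated at 5000/well and rested 4 h. They were then exposed to compound at nine final concentrations (10000 to 1.5 nM) for 120 h at 37 °C. Viability was read by MTS (2 h, A490) and IC50 derived by curve fitting.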

[3] = test system: Toledo cells; assay: Cell proliferation assay, Toledo cells (MTS, 72 h); settings: Homo sapiens, Toledo cells, MTS, read-out: Toledo IC50
Procedure, shortened: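 IC50 was derived from 490 nm absorbance after a 2 h MTS step. Before that, compounds at 1.5–10000 nM final (nine points) acted on Toledo cells for 72 h at 37 °C, 5% CO2. Cells were seeded at 30000/well in 10% FBS RPMI-1640 and rested 4 h before dosing.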

Row | Compound | IC50 [1] | IC50 [2] | IC50 [3]
1 | CC(C)c1ccccc1[C@@H]1COCCN1C1CC2(CCN(c3ccc(C(=O)NS(=O)(=O)c4cnc(NC[C@H]5CC[C@@](C)(O)CC5)c([N+](=O)[O-])c4)c(Oc4cnc5[nH]ccc5c4)c3)CC2)C1 (single isomer, unassigned) [Example A-56a, 2-((1H-pyrrolo[2,3-b]pyridin-5-yl)oxy)-N-((6-((((1s,4s)-4-hydroxy-4-methylcyclohexyl)methyl)amino)-5-nitropyridin-3-yl)sulfonyl)-4-(2-((R or S)-3-(2-isopropylphenyl)morpho-lino)-7-azaspiro[3.5]nonan-7-yl) benzamide] | ≤ 1 nM | ≤ 1 nM | 1 nM
2 | CC(C)c1ccccc1[C@H]1CCCN1C1CC2(CCN(c3ccc(C(=O)NS(=O)(=O)c4cnc(NCC5CCC(N=S(C)(C)=O)CC5)c([N+](=O)[O-])c4)c(Oc4cnc5[nH]ccc5c4)c3)CC2)C1 (stereo partly drawn) [Example A-10b, (R)-2-((1H-pyrrolo[2,3-b]pyridin-5-yl)oxy)-N-((6-(((4-((dimethyl (oxo)-λ^6-sulfanylidene)amino)cyclo-hexyl)methyl)amino)-5-nitropyridin-3-yl)sulfonyl)-4-(2-(2-(2-isopropyl-phenyl)pyrrolidin-1-yl)-7-azaspiro [3.5]nonan-7-yl)benzamide] | ≤ 1 nM | ≤ 1 nM | –
3 | O=C(NS(=O)(=O)c1cnc(NCC2CCC(N=S3(=O)CCOCC3)CC2)c([N+](=O)[O-])c1)c1ccc(N2CCC3(CC2)CC(N2CCC[C@@H]2c2ccccc2C2CC2)C3)cc1Oc1cnc2[nH]ccc2c1 (stereo partly drawn) [Example A-23b, (R)-2-((1H-pyrrolo[2,3-b]pyridin-5-yl)oxy)-4-(2-(2-(2-cyclopropyl-phenyl)pyrrolidin-1-yl)-7-azaspiro [3.5]nonan-7-yl)-N-((5-nitro-6-(((4-((4-oxido-1,4λ^6-oxathian-4-ylidene)amino)cyclohexyl)methyl)amino)pyridin-3-yl)sulfonyl) benzamide] | ≤ 1 nM | ≤ 1 nM | –
4 | CC(C)c1ccccc1[C@@H]1CCCN1C1CC2(CCN(c3ccc(C(=O)NS(=O)(=O)c4cnc(NCC5CCOCC5)c([N+](=O)[O-])c4)c(Oc4cnc5[nH]ccc5c4)c3)CC2)C1 [Example A-5a, (5)-2-((1H-pyrrolo[2,3-b]pyridin-5-yl)oxy)-4-(2-(2-(2-isopropyl-phenyl)pyrrolidin-1-yl)-7-azaspiro [3.5]nonan-7-yl)-N-((5-nitro-6-(((tetrahydro-2H-pyran-4-yl)methyl)amino)pyridin-3-yl)sulfonyl) benzamide] | ≤ 1 nM | ≤ 1 nM | –
5 | O=C(NS(=O)(=O)c1cnc(NCC2C3COCC23)c([N+](=O)[O-])c1)c1ccc(N2CCC3(CC2)CC(N2CCC4C[C@@]42c2ccccc2C2CC2)C3)cc1Oc1cnc2[nH]ccc2c1 (single isomer, unassigned) [Example A-97a, 2-((1H-pyrrolo[2,3-b]pyridin-5-yl)oxy)-N-((6-(((3-oxabicyclo[3.1.0]hexan-6-yl)methyl)amino)-5-nitro-pyridin-3-yl)sulfonyl)-4-(2-((1R or 1S)-1-(2-cyclopropylphenyl)-2-aza-bicyclo[3.1.0]hexan-2-yl)-7-azaspiro [3.5]nonan-7-yl)benzamide] | ≤ 1 nM | ≤ 1 nM | –
6 | O=C(NS(=O)(=O)c1cnc(NCC2(F)CCOCC2)c([N+](=O)[O-])c1)c1ccc(N2CCC3(CC2)CC(N2CCC[C@@H]2c2ccccc2C2CC2)C3)cc1Oc1cnc2[nH]ccc2c1 [Example A-32b, (R)-2-((1H-pyrrolo[2,3-b]pyridin-5-yl)oxy)-4-(2-(2-(2-cyclopropyl-phenyl)pyrrolidin-1-yl)-7-azaspiro [3.5]nonan-7-yl)-N-((6-(((4-fluoro-tetrahydro-2H-pyran-4-yl)methyl)amino)-5-nitropyridin-3-yl)sulfonyl)benzamide] | ≤ 1 nM | ≤ 1 nM | –
7 | CCc1ccccc1[C@H]1CCCN1C1CC2(CCN(c3ccc(C(=O)NS(=O)(=O)c4cnc(NCC5CCC(N=S6(=O)CCOCC6)CC5)c([N+](=O)[O-])c4)c(Oc4cnc5[nH]ccc5c4)c3)CC2)C1 (stereo partly drawn) [Example A-21b, (R)-2-((1H-pyrrolo[2,3-b]pyridin-5-yl)oxy)-4-(2-(2-(2-ethylphenyl)pyrrolidin-1-yl)-7-azaspiro[3.5]nonan-7-yl)-N-((5-nitro-6-(((4-((4-oxido-1,4λ^6-oxathian-4-ylidene)amino)cyclohexyl)methyl)amino)pyridin-3-yl)sulfonyl)benzamide] | ≤ 1 nM | ≤ 1 nM | –

Second part, led by results:

Row | IC50 [1] | Compound | IC50 [2] | IC50 [3]
8 | ≤ 1 nM | CC(C)c1ccccc1[C@@H]1CCCN1C1CC2(CCN(c3ccc(C(=O)NS(=O)(=O)c4cc5c(c([N+](=O)[O-])c4)O[C@H](CN4CCOCC4)CO5)c(Oc4cnc5[nH]ccc5c4)c3)CC2)C1 (single isomer, unassigned) [Example E-39, 2-((1H-pyrrolo [2,3-b]pyridin-5-yl)oxy)-4-(2-((R or S)-2-(2-isopropylphenyl)pyrrolidin-1-yl)-7-azaspiro[3.5]nonan-7-yl)-N-(((R)-2-(morpholinomethyl)-8-nitro-2,3-dihydrobenzo [b][1,4]dioxin-6-yl)sulfonyl) benzamide] | ≤ 1 nM | 1 nM
9 | ≤ 1 nM | O=C(NS(=O)(=O)c1cc([N+](=O)[O-])c(NCC2CCOCC2)cn1)c1ccc(N2CCC3(CC2)CC(N2CCC[C@@H]2c2ccccc2C2CC2)C3)cc1Oc1cnc2[nH]ccc2c1 [Example B-1b, (R)-2-((1H-pyrrolo[2,3-b]pyridin-5-yl)oxy)-4-(2-(2-(2-cyclopropylphenyl)pyrrolidin-1-yl)-7-azaspiro[3.5]nonan-7-yl)-N-((4-nitro-5-(((tetrahydro-2H-pyran-4-yl)methyl)amino)pyridin-2-yl)sulfonyl)benzamide] | ≤ 1 nM | –
10 | ≤ 1 nM | CC(C)c1ccccc1C1CCCN1C1CC2(CCN(c3ccc(C(=O)NS(=O)(=O)c4cc([N+](=O)[O-])c5c(n4)OC[C@H](C4CCOCC4)N5)c(Oc4cnc5[nH]ccc5c4)c3)CC2)C1 (single isomer, unassigned) [Example B-33, 2-((1H-pyrrolo[2,3-b]pyridin-5-yl)oxy)-4-(2-((R or S)-2-(2-isopropylphenyl)pyrrolidin-1-yl)-7-azaspiro[3.5]nonan-7-yl)-N-(((S)-8-nitro-2-(tetrahydro-2H-pyran-4-yl)-2,3-dihydro-1H-pyrido[2,3-b][1,4]oxazin-6-yl)sulfonyl)benzamide] | ≤ 1 nM | –
11 | ≤ 1 nM | CC(C)c1ccccc1[C@@H]1CCCN1C1CC2(CCN(c3ccc(C(=O)NS(=O)(=O)c4cc([N+](=O)[O-])c5c(n4)OC[C@H]([C@H]4CC[C@](C)(O)CC4)N5)c(Oc4cnc5[nH]ccc5c4)c3)CC2)C1 (single isomer, unassigned) [Example B-34, 2-((1H-pyrrolo[2,3-b]pyridin-5-yl)oxy)-N-(((S)-2-((1r,4S)-4-hydroxy-4-methylcyclohexyl)-8-nitro-2,3-dihydro-1H-pyrido[2,3-b] [1,4]oxazin-6-yl)sulfonyl)-4-(2-((R or S)-2-(2-isopropylphenyl)pyrrolidin-1-yl)-7-azaspiro[3.5]nonan-7-yl)benzamide] | ≤ 1 nM | –
12 | ≤ 1 nM | CC(C)c1ccccc1[C@@H]1COCCN1C1CC2(CCN(c3ccc(C(=O)NS(=O)(=O)c4cc([N+](=O)[O-])c5c(n4)OC[C@H]([C@H]4CC[C@](C)(O)CC4)N5)c(Oc4cnc5[nH]ccc5c4)c3)CC2)C1 (single isomer, unassigned) [Example B-47, 2-((1H-pyrrolo[2,3-b]pyridin-5-yl)oxy)-N-(((S)-2-((1r,4S)-4-hydroxy-4-methylcyclohexyl)-8-nitro-2,3-dihydro-1H-pyrido[2,3-b][1,4]oxazin-6-yl)sulfonyl)-4-(2-((R or S)-3-(2-isopropylphenyl)morpholino)-7-azaspiro[3.5]nonan-7-yl) benzamide] | ≤ 1 nM | –
13 | ≤ 1 nM | CC(C)c1ccccc1[C@H]1CCCN1C1CC2(CCN(c3ccc(C(=O)NS(=O)(=O)c4cc([N+](=O)[O-])c5c(n4)OC[C@H](Cc4ccccc4)N5)c(Oc4cnc5[nH]ccc5c4)c3)CC2)C1 [Example B-3b, 2-((1H-pyrrolo[2,3-b]pyridin-5-yl)oxy)-N-(((S)-2-benzyl-8-nitro-2,3-dihydro-1H-pyrido[2,3-b][1,4]oxazin-6-yl)sulfonyl)-4-(2-((R)-2-(2-isopropylphenyl)pyrrolidin-1-yl)-7-azaspiro[3.5]nonan-7-yl) benzamide] | ≤ 1 nM | –
14 | ≤ 1 nM | O=C(NS(=O)(=O)c1cc([N+](=O)[O-])c2c(n1)OC[C@H](C1CC1)N2)c1ccc(N2CCC3(CC2)CC(N2CCCC2c2ccccc2C2CC2)C3)cc1Oc1cnc2[nH]ccc2c1 (single isomer, unassigned) [Example B-52, 2-((1H-pyrrolo[2,3-b]pyridin-5-yl)oxy)-N-(((S)-2-cyclopropyl-8-nitro-2,3-dihydro-1H-pyrido[2,3-b] [1,4]oxazin-6-yl)sulfonyl)-4-(2-((R or S)-2-(2-cyclopropylphenyl)pyrrolidin-1-yl)-7-azaspiro[3.5]nonan-7-yl)benzamide] | ≤ 1 nM | –
